{"source": "patent US7105162B1", "about": "“Pharmaceutical composition for immunomodulation based on peptides and adjuvants” (Boehringer Ingelheim International GmbH, priority 1996, dated 2006)", "key": {"[1]": {"test_system": "P388D1 cells", "assay": "Permeabilisation of the cell membrane: LDH release (Cytotox 96)", "type": "cell-based, murine", "conditions": "isotonic conditions; FIG. 12", "method": "Peptides can be absorbed by APCs by means of specific mechanisms such as macropinocytosis or receptor-mediated endocytosis (Lanzavecchia, 1996). An alternative mechanism may consist in the polyamino acids making the cell membrane permeable and in this way allowing peptides to diffuse from the medium into the cytoplasm. • a) The possible permeabilisation of the cell membrane was tested by measuring the release of the cytoplasmic enzyme lactate dehydrogenase (LDH) after the incubation of P388D1 cells with polyamino acids (polylysine or polyarginine) under isotonic conditions using the commercially available kit (Cytotox 96, Promega, Madison, Wis., USA) in accordance with the manufacturer's instructions. […] When samples treated with polyamino acids alone were compared, no difference in the release of LDH was found compared with treatment with a mixture of polylysine or polyarginine with peptide. […] The fluorescence emitted by FITC is strongly pH-dependent. In an environment with pH conditions such as those found in endosomes, fluorescence is suppressed. Therefore, FITC-labelled peptides which are absorbed by the cells into the endosomes show reduced fluorescence. When monensin is added, the low pH of the endosomes is neutralised, leading to a measurably greater fluorescence of the internalised FITC-labelled peptides."}, "[2]": {"test_system": "APCs", "assay": "Internalisation of FITC-labelled peptide (monensin treatment, 4° C. versus 37° C.), throughflow cytometry", "type": "cell-based", "conditions": "incubated at 37° C., then 50 μM monensin at 4° C.; FIG. 13", "method": "Peptides can be absorbed by APCs by means of specific mechanisms such as macropinocytosis or receptor-mediated endocytosis (Lanzavecchia, 1996). An alternative mechanism may consist in the polyamino acids making the cell membrane permeable and in this way allowing peptides to diffuse from the medium into the cytoplasm. • a) The possible permeabilisation of the cell membrane was tested by measuring the release of the cytoplasmic enzyme lactate dehydrogenase (LDH) after the incubation of P388D1 cells with polyamino acids (polylysine or polyarginine) under isotonic conditions using the commercially available kit (Cytotox 96, Promega, Madison, Wis., USA) in accordance with the manufacturer's instructions. […] The fluorescence emitted by FITC is strongly pH-dependent. In an environment with pH conditions such as those found in endosomes, fluorescence is suppressed. Therefore, FITC-labelled peptides which are absorbed by the cells into the endosomes show reduced fluorescence. When monensin is added, the low pH of the endosomes is neutralised, leading to a measurably greater fluorescence of the internalised FITC-labelled peptides.\nThe cells were incubated with a mixture of polyarginine (average molecular weight range 100,000, chain length 490) and fluorescence-labelled peptide at 4° C. or 37° C. […]"}}}
{"sequence": "LFEAIEGFI [FITC-labelled model peptide antigen, MHC Kd-restricted, derived from influenza haemagglutinin]", "values": [{"measurement": "LDH released from cells", "setting": "[1]", "result": "no measurable LDH-activity"}, {"measurement": "change in fluorescence after monensin treatment", "setting": "[2]", "result": "only a slight increase in fluorescence"}]}
